The source of these data is ChEMBL document CHEMBL5241054, “Effective anti-aromatase therapy to battle against estrogen-mediated breast cancer: Comparative SAR/QSAR assessment on steroidal aromatase inhibitors” (Eur J Med Chem, 2020).

The target in data set [1] is T1, Aromatase (Homo sapiens, UniProt P11511).
T1 sequence (P11511 whole entry): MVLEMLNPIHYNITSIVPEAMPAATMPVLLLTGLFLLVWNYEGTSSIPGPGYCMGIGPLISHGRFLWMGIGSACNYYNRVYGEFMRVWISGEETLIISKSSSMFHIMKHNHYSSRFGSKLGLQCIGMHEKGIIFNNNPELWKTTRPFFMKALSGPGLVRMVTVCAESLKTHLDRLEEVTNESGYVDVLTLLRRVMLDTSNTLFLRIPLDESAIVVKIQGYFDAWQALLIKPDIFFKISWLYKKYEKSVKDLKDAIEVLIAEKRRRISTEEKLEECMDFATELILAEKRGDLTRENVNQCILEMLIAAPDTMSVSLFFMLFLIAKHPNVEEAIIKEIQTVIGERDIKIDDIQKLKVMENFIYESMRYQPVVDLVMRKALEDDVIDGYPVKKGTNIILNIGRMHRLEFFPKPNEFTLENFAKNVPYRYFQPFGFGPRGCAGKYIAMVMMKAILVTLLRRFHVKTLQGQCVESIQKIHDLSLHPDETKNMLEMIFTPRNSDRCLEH

For data set [2], the target named is T1, Aromatase. This is another data set of the same source.
The target in data set [3] is T1, Aromatase. This is another data set of the same source.
For data set [4], the target named is T1, Aromatase. Description: Binding affinity to aromatase (unknown origin) assessed as change in gibbs free energy.

Several values for one entry are separate records, joined by “and”; a condition that tells them apart may be missing. Equal values may be shown once.

As usually defined, the IC50 is the concentration needed to halve the response being measured. For `C[C@@H]1C[C@@]2(C)C(=CC1=O)CC[C@@H]1[C@@H]2CC[C@]2(C)C(=O)CC[C@@H]12`, the IC50 is 460 nM against Aromatase [1]; 250 nM and 460 nM on Aromatase [2]. `C[C@]12C=CC(=O)C=C1C[C@@H](Cc1ccccc1)[C@@H]1[C@@H]2CC[C@]2(C)C(=O)CC[C@@H]12`: the values for the IC50 at Aromatase [1] and against Aromatase [2] were 19.2 nM and 232 nM, respectively. As to `C[C@]12CCC(=O)C=C1C=C(CCc1ccccc1)[C@@H]1[C@@H]2CC[C@]2(C)C(=O)CC[C@@H]12`, the results for the IC50 against Aromatase [1] and at Aromatase [2] were 174 nM and 661 nM, respectively.

For the compound `C[C@]12C=CC(=O)C=C1C[C@@H](CCCc1ccc([N+](=O)[O-])cc1)[C@@H]1[C@@H]2CC[C@]2(C)C(=O)CC[C@@H]12`, the IC50 at Aromatase [1] is 75.7 nM; against Aromatase [2], 12.9 nM. In the case of `C[C@]12C=CC(=O)C=C1C[C@@H](CCCc1ccccc1)[C@@H]1[C@@H]2CC[C@]2(C)C(=O)CC[C@@H]12`, the results for the IC50 against Aromatase [1] and against Aromatase [2] were 63.7 nM and 7.69 nM, respectively. Regarding `C[C@]12C=CC(=O)C=C1C[C@@H](CCc1ccccc1)[C@@H]1[C@@H]2CC[C@]2(C)C(=O)CC[C@@H]12`, the IC50 against Aromatase [1] was 155 nM; on Aromatase [2], 16.7 nM.

As for `C[C@]12CCC(=O)C=C1C=C(Cc1ccccc1)[C@@H]1[C@@H]2CC[C@]2(C)C(=O)CC[C@@H]12`, the IC50 at Aromatase [1] was 61 nM; at Aromatase [2] it was 600 nM.

With `C[C@]12CCC(=O)C=C1C=C(CCc1ccc([N+](=O)[O-])cc1)[C@@H]1[C@@H]2CC[C@]2(C)C(=O)CC[C@@H]12`, the IC50 was 95.1 nM against Aromatase [1] and 4500 nM against Aromatase [2]. Regarding `C[C@]12CCC(=O)C=C1C=C(Cc1ccc([N+](=O)[O-])cc1)[C@@H]1[C@@H]2CC[C@]2(C)C(=O)CC[C@@H]12`, the IC50 at Aromatase [1] is 94 nM; at Aromatase [2] it was 929 nM. For the compound `C[C@]12CCC(=O)C=C1C=C(CCc1ccc(N)cc1)[C@@H]1[C@@H]2CC[C@]2(C)C(=O)CC[C@@H]12`, the figures for the IC50 against Aromatase [1] and against Aromatase [2] were 87.9 nM and 1250 nM, respectively. For orientation: pIC50 means −log10 of the IC50, conventionally taken in molar units. Lower therefore signals a high IC50. `C[C@]12CC[C@H](O)CC1=CC[C@@H]1[C@@H]2CC[C@]2(C)C(=O)[C@@H](n3ccnc3)C[C@@H]12` displayed a pIC50 on Aromatase [3] of 5.481.

As to `C[C@]12CCC(=O)C=C1C(=O)C[C@@H]1[C@@H]2CC[C@]2(C)C(=O)CC[C@@H]12`, the IC50 against Aromatase [1] was 280 nM; against Aromatase [2] it was 1100 nM and 280 nM. As for `C[C@]12CCC(=O)C=C1C=C(Cc1ccc(N)cc1)[C@@H]1[C@@H]2CC[C@]2(C)C(=O)CC[C@@H]12`, the IC50 on Aromatase [1] was 87.9 nM; against Aromatase [2], 490 nM. In turn, `C[C@]12CCC(=O)C(O)=C1CC[C@@H]1[C@@H]2CC[C@]2(C)C(=O)CC[C@@H]12` [FORMESTANE] had a half-maximal inhibitory concentration (IC50) against Aromatase [1] of 562 nM. Besides, the deltaG at Aromatase [4] is given as 13.35 kcal/mol.
